# Assay results: US20230203098A1, “HUMAN TRANSFERRIN RECEPTOR BINDING PEPTIDE” (priority 2020, published 2023)
# pKd: −log10 of the molar value. Read-outs that look alike come from different tables or passages of the source. Where a SMILES comes first, the peptide text is derived from it. Bridges are numbered along the chain shown (N, C = ends). [ ]: non-standard residue; d: D form. The star is where a group is joined. X2 = O=C(O)c1cc(C(=O)*)ccc1-c1c2ccc(=O)cc-2oc2cc(O)ccc12; PEG12 = NCCOCCOCCOCCOCCOCCOCCOCCOCCOCCOCCOCCOCCC(=O)O; NMePhe(3-Cl) = CN[C@@H](Cc1cccc(Cl)c1)C(=O)O; NMeW = CN[C@@H](Cc1c[nH]c2ccccc12)C(=O)O; Phe(4-F) = N[C@@H](Cc1ccc(F)cc1)C(=O)O; NMeY = CN[C@@H](Cc1ccc(O)cc1)C(=O)O; NMeH = CN[C@@H](Cc1c[nH]cn1)C(=O)O; NMeF = CN[C@@H](Cc1ccccc1)C(=O)O; PEG4 = NCCOCCOCCOCCOCCC(=O)O; Orn = NCCC[C@H](N)C(=O)O; Abu = CC[C@H](N)C(=O)O
# Target: transferrin receptor (hTfR) (Homo sapiens, UniProt P02786)
# Test: Intermolecular interaction evaluation test between transferrin receptor (hTfR) and peptide by surface plasmon resonance (SPR)
# Format: binding
# How it was run: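 Receptor was Ni-captured and EDC/NHS-fixed on an NTA chip; running buffer HEPES pH 8.0 with NaCl, Tween 20, BSA and 1.0% DMSO.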
# [1] = surface plasmon resonance, peptide vs hTfR, read-out: KD value, hTfR binding by SPR (class symbol)
# [2] = SPR, hTfR No. 894 variants with PEG12c linker (Table 2), read-out: KD
# [3] = binding to hTfR by SPR, Table 2 peptides, read-out: KD value (SPR) class
# [4] = surface plasmon resonance, hTfR, read-out: KD value for hTfR by SPR (class symbol)
# Chain of transferrin receptor (hTfR) (P02786 whole entry): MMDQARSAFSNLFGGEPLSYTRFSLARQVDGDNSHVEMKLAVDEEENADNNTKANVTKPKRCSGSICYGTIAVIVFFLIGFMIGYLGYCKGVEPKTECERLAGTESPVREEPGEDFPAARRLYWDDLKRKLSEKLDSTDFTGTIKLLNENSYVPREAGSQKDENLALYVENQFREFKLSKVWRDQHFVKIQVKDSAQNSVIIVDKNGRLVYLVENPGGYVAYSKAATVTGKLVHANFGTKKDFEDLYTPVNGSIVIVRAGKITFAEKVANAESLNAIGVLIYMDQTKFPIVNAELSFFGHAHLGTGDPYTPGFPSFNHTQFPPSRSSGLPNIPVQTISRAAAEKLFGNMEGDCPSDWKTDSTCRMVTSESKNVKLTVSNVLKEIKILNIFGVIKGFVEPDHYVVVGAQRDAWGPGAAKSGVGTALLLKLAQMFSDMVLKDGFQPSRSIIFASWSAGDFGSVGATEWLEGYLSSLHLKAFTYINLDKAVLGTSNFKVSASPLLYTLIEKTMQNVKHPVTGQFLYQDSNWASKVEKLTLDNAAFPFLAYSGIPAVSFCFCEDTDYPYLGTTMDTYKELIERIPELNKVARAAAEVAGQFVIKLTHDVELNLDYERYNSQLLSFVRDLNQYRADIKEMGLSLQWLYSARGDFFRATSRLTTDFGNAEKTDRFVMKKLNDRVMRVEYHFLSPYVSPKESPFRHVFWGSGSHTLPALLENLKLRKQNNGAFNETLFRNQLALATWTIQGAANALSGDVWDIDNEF
smiles,measurement,setting,value
CC[C@H](C)[C@@H]1NC(=O)[C@H](Cc2ccc(O)cc2)NC(=O)[C@H](Cc2ccc(O)cc2)NC(=O)[C@H](CC(N)=O)NC(=O)[C@H](Cc2c[nH]c3ccccc23)NC(=O)[C@H](C(C)C)NC(=O)[C@H](Cc2ccccc2)NC(=O)[C@H](C(C)C)NC(=O)[C@H](C)NC(=O)CSC[C@@H](C(=O)NCCOCCOCCOCCOCCOCCOCCOCCOCCOCCOCCOCCOCCC(=O)N[C@@H](CCCCNC(=O)c2ccc(-c3c4ccc(=O)cc-4oc4cc(O)ccc34)c(C(=O)O)c2)C(N)=O)NC(=O)[C@H](Cc2c[nH]cn2)N(C)C(=O)[C@H](CO)NC(=O)[C@H](CCCNC(=N)N)NC(=O)[C@H](Cc2ccccc2)NC(=O)[C@H](CCCNC(=N)N)NC(=O)[C@H](CC(=O)O)NC(=O)[C@H]([C@@H](C)CC)NC1=O [compound 149] ({CH2CO}-AVFVWNYYIIDRFRS[NMeH]C[PEG12]K(X2)-NH2; thioether N-17),pKd,"SPR, linker and payload (FITC, VivoTag) conjugates, read-out: KD",7.00 to 9.00
CC[C@@H]1NC(=O)[C@H]([C@@H](C)CC)NC(=O)[C@H](Cc2ccc(OC)cc2)NC(=O)[C@H](Cc2ccc(O)cc2)NC(=O)[C@H](CC(N)=O)NC(=O)[C@H](Cc2c[nH]c3ccccc23)N(C)C(=O)[C@H](C(C)C)NC(=O)[C@H](Cc2cccc(Cl)c2)N(C)C(=O)[C@H](C(C)C)NC(=O)[C@H](C)NC(=O)CSC[C@@H](C(=O)NCCOCCOCCOCCOCCC(N)=O)NC(=O)[C@H](Cc2ccc(O)cc2)N(C)C(=O)[C@H](Cc2ccccc2)NC(=O)[C@@H](CCCNC(=N)N)NC(=O)[C@H](CCCNC(=N)N)NC1=O [compound 325] ({CH2CO}-AV[NMePhe(3-Cl)]V[NMeW]NYY(Me)I[Abu]R[dR]F[NMeY]C[PEG4]-NH2; thioether N-15),pKd,[1],7.00 to 9.00
CC[C@H](C)[C@@H]1NC(=O)[C@H](Cc2ccc(O)cc2)NC(=O)[C@H](Cc2ccc(O)cc2)NC(=O)[C@H](CC(N)=O)NC(=O)[C@H](Cc2c[nH]c3ccccc23)N(C)C(=O)[C@H](C(C)C)NC(=O)[C@H](Cc2ccccc2)N(C)C(=O)[C@H](C(C)C)NC(=O)[C@H](C)NC(=O)CSC[C@@H](C(=O)NCCOCCOCCOCCOCCC(=O)N[C@@H](CCCCNC(=O)C2CCC(CN3C(=O)C=CC3=O)CC2)C(N)=O)NC(=O)[C@H](Cc2ccc(O)cc2)N(C)C(=O)[C@H](Cc2ccc(O)cc2)NC(=O)[C@H](CCCNC(=N)N)NC(=O)[C@H](CCCNC(=N)N)NC(=O)[C@H]([C@@H](C)CC)NC1=O (some centres unmarked) [compound 184],pKd,"hTfR binding by SPR, hTfR No. 894 variant peptides, linker-added peptides and payload conjugates (Table 2), read-out: KD value obtained from the SPR measurement",7.00 to 9.00
CC[C@H](C)[C@@H]1NC(=O)[C@H](Cc2ccc(O)cc2)NC(=O)[C@H](Cc2ccc(O)cc2)NC(=O)[C@H](CC(N)=O)NC(=O)[C@H](Cc2c[nH]c3ccccc23)NC(=O)[C@H](C(C)C)NC(=O)[C@H](Cc2ccccc2)N(C)C(=O)[C@H](C(C)C)NC(=O)[C@H](C)NC(=O)CSC[C@@H](C(=O)NCCOCCOCCOCCOCCOCCOCCOCCOCCOCCOCCOCCOCCC(N)=O)NC(=O)[C@H](C)NC(=O)[C@H](Cc2ccc(O)cc2)NC(=O)[C@H](CCCNC(=N)N)NC(=O)[C@H](CCCNC(=N)N)NC(=O)[C@H]([C@@H](C)CC)NC1=O [compound 117] ({CH2CO}-AV[NMeF]VWNYYIIRRYAC[PEG12]-NH2; thioether N-15),pKd,[2],7.00 to 9.00
CC[C@H](C)[C@@H]1NC(=O)[C@H](Cc2ccc(O)cc2)NC(=O)[C@H](Cc2ccc(O)cc2)NC(=O)[C@H](CC(N)=O)NC(=O)[C@H](Cc2c[nH]c3ccc(F)cc23)NC(=O)[C@H](C(C)C)NC(=O)[C@H](Cc2ccccc2)N(C)C(=O)[C@H](C(C)C)NC(=O)[C@H](C)NC(=O)CSC[C@@H](C(N)=O)NC(=O)[C@H](Cc2ccc(O)cc2)N(C)C(=O)[C@H](Cc2ccc(O)cc2)NC(=O)[C@H](CCCNC(=N)N)NC(=O)[C@H](CCCNC(=N)N)NC(=O)[C@H]([C@@H](C)CC)NC1=O [compound 269],pKd,[3],7.00 to 9.00
CC[C@H](C)[C@@H]1NC(=O)[C@H](Cc2ccc(OC)cc2)NC(=O)[C@H](Cc2ccc(O)cc2)NC(=O)[C@H](CC(N)=O)NC(=O)[C@H](Cc2c[nH]c3ccccc23)NC(=O)[C@H](C(C)C)NC(=O)[C@H](Cc2cccc(Cl)c2)N(C)C(=O)[C@H](C(C)C)NC(=O)[C@H](C)NC(=O)CSC[C@@H](C(=O)NCC(=O)NCC(=O)N[C@@H](CO)C(=O)NCC(=O)N[C@@H](CO)C(=O)NCC(=O)N[C@@H](CCCCN=[N+]=[N-])C(N)=O)NC(=O)[C@H](Cc2ccc(O)cc2)N(C)C(=O)[C@H](Cc2ccccc2)NC(=O)[C@@H](CCCCN)NC(=O)[C@H](CCCNC(=N)N)NC(=O)[C@H]([C@@H](C)CC)NC1=O [compound 313],pKd,[1],7.00 to 9.00
CC[C@H](C)[C@@H]1NC(=O)[C@@H]2CCCNC(=O)CC[C@H](NC(=O)[C@H](C(C)C)NC(=O)[C@H](C)NC(=O)CSC[C@@H](C(N)=O)NC(=O)[C@H](Cc3ccc(O)cc3)N(C)C(=O)[C@H](Cc3ccc(O)cc3)NC(=O)[C@H](CCCNC(=N)N)NC(=O)[C@H](CCCNC(=N)N)NC(=O)[C@H]([C@@H](C)CC)NC1=O)C(=O)N[C@@H](C(C)C)C(=O)N(C)[C@@H](Cc1c[nH]c3ccccc13)C(=O)N[C@@H](CC(N)=O)C(=O)N[C@@H](Cc1ccc(O)cc1)C(=O)N2 [compound 415] ({CH2CO}-AVEV[NMeW]NY[Orn]IIRRY[NMeY]C-NH2; lactam 3-8 (inferred); thioether N-15 (inferred)),pKd,"surface plasmon resonance, peptide vs hTfR, read-out: KD value for hTfR by SPR (class symbol)",6.00 to 7.00
CC[C@H](C)[C@@H]1NC(=O)[C@H](Cc2ccc(OC)cc2)NC(=O)[C@H](Cc2ccc(O)cc2)NC(=O)[C@H](CC(N)=O)NC(=O)[C@H](Cc2c[nH]c3ccccc23)N(C)C(=O)[C@H](C(C)C)NC(=O)[C@H](Cc2cccc(Cl)c2)N(C)C(=O)[C@H](C(C)C)NC(=O)[C@H](C)NC(=O)CSC[C@@H](C(=O)NCCOCCOCCOCCOCCC(N)=O)NC(=O)[C@H](Cc2ccc(O)cc2)N(C)C(=O)[C@H](Cc2ccccc2)NC(=O)[C@@H](CCCNC(=N)N)NC(=O)[C@H](CCCCN)NC(=O)[C@H]([C@@H](C)CC)NC1=O [compound 374] ({CH2CO}-AV[NMePhe(3-Cl)]V[NMeW]NYY(Me)IIK[dR]F[NMeY]C[PEG4]-NH2; thioether N-15),pKd,[4],7.00 to 9.00
CC[C@H](C)[C@@H]1NC(=O)[C@H](Cc2ccc(OC)cc2)NC(=O)[C@H](Cc2ccc(O)cc2)NC(=O)[C@H](CC(N)=O)NC(=O)[C@H](Cc2c[nH]c3ccccc23)N(C)C(=O)[C@H](C(C)C)NC(=O)[C@H](Cc2cccc(C(=O)O)c2)N(C)C(=O)[C@H](C(C)C)NC(=O)[C@H](C)NC(=O)CSC[C@@H](C(N)=O)NC(=O)[C@H](Cc2ccc(O)cc2)N(C)C(=O)[C@H](Cc2ccccc2)NC(=O)[C@@H](CCCNC(=N)N)NC(=O)[C@H](CCCNC(=N)N)NC(=O)[C@H]([C@@H](C)CC)NC1=O [compound 452],pKd,"SPR, hTfR, class symbols A-D, read-out: KD",6.00 to 7.00
CC[C@H](C)[C@@H]1NC(=O)[C@H](Cc2ccc(O)cc2)NC(=O)[C@H](Cc2ccc(O)cc2)NC(=O)[C@H](CC(N)=O)NC(=O)[C@H](Cc2ccc(F)cc2)NC(=O)[C@H](C(C)C)NC(=O)[C@H](Cc2ccccc2)N(C)C(=O)[C@H](C(C)C)NC(=O)[C@H](C)NC(=O)CSC[C@@H](C(=O)NCCOCCOCCOCCOCCOCCOCCOCCOCCOCCOCCOCCOCCC(N)=O)NC(=O)[C@H](Cc2ccc(O)cc2)N(C)C(=O)[C@H](Cc2ccc(O)cc2)NC(=O)[C@H](CCCNC(=N)N)NC(=O)[C@H](CCCNC(=N)N)NC(=O)[C@H]([C@@H](C)CC)NC1=O [compound 119] ({CH2CO}-AV[NMeF]V[Phe(4-F)]NYYIIRRY[NMeY]C[PEG12]-NH2; thioether N-15),pKd,[2],7.00 to 9.00
CC[C@H](C)[C@@H]1NC(=O)[C@H](Cc2ccc(O)cc2)NC(=O)[C@H](Cc2ccc(O)cc2)NC(=O)[C@H](CC(N)=O)NC(=O)[C@H](Cc2c[nH]c3ccccc23)NC(=O)[C@H](C(C)C)NC(=O)[C@H](Cc2ccccc2)NC(=O)[C@H](C(C)C)NC(=O)[C@H](C)NC(=O)CSC[C@@H](C(N)=O)NC(=O)[C@H](Cc2ccc(O)cc2)N(C)C(=O)[C@H](CCCNC(=N)N)NC(=O)[C@H](CCCNC(=N)N)NC(=O)[C@H](CCCNC(=N)N)NC(=O)[C@H]([C@@H](C)CC)NC1=O [compound 260],pKd,[3],7.00 to 9.00
CC[C@H](C)[C@@H]1NC(=O)[C@H](Cc2ccc(OC)cc2)NC(=O)[C@H](Cc2ccc(O)cc2)NC(=O)[C@H](CC(N)=O)NC(=O)[C@H](Cc2c[nH]c3ccccc23)N(C)C(=O)[C@H](C(C)C)NC(=O)[C@H](Cc2cccc(Cl)c2)N(C)C(=O)[C@H](C(C)C)NC(=O)[C@H](C)NC(=O)CSC[C@@H](C(N)=O)NC(=O)[C@H](Cc2ccc(O)cc2)N(C)C(=O)[C@H](Cc2ccccc2)NC(=O)[C@@H](CCCNC(=N)N)NC(=O)[C@H](CCCNC(=N)N)N(C)C(=O)[C@H]([C@@H](C)CC)NC1=O [compound 382],pKd,[4],7.00 to 9.00
CC[C@H](C)[C@@H]1NC(=O)[C@H](Cc2ccc(O)cc2)NC(=O)[C@H](Cc2ccc(O)cc2)NC(=O)[C@H](CC(N)=O)NC(=O)[C@H](Cc2c[nH]c3ccccc23)NC(=O)[C@H](C(C)C)NC(=O)[C@H](Cc2ccccc2)N(C)C(=O)[C@H](C(C)C)NC(=O)[C@H](C)NC(=O)CSC[C@@H](C(N)=O)NC(=O)[C@H](Cc2ccc(O)cc2)N(C)C(=O)[C@H](Cc2ccc(O)cc2)NC(=O)[C@H](CCCNC(=N)N)NC(=O)[C@H](CCCCN)N(C)C(=O)[C@H]([C@@H](C)CC)NC1=O [compound 292],pKd,[1],7.00 to 9.00
CC[C@H](C)[C@@H]1NC(=O)[C@H](Cc2ccc(OC)cc2)NC(=O)[C@H](Cc2ccc(O)cc2)NC(=O)[C@H](CC(N)=O)NC(=O)[C@H](Cc2c[nH]c3ccccc23)N(C)C(=O)[C@H](C(C)C)NC(=O)[C@H](Cc2cccc(Cl)c2)N(C)C(=O)[C@H](C(C)C)NC(=O)[C@H](C)NC(=O)CSC[C@@H](C(=O)NCCOCCOCCOCCOCCC(N)=O)NC(=O)[C@H](Cc2ccc(O)cc2)N(C)C(=O)[C@H](Cc2ccccc2)NC(=O)[C@@H](CCCNC(=N)N)NC(=O)[C@H](CCCNC(=N)N)NC(=O)[C@H]([C@H](C)O)NC1=O [compound 332],pKd,[1],7.00 to 9.00
